Measurements from the NIST ThermoML archive (doi:10.1016/j.jct.2007.06.013).
± gives the expanded uncertainty stated by the source.

Assays:
[1] = molar heat capacity at constant pressure; conditions: Liquid, calorimeter with the thermal relaxation.
[2] = molar heat capacity at constant pressure; xn = mol fraction of the nth substance listed; conditions: Liquid, calorimeter with the thermal relaxation.

N [ammonia]
[1]
Conditions | molar heat capacity at constant pressure [J/K/mol]
280 K, 1000 kPa | 76.81 ± 2
280 K, 5000 kPa | 75.62 ± 4.6
300 K, 5000 kPa | 76.81 ± 3.4
320 K, 5000 kPa | 77.83 ± 2
360 K, 5000 kPa | 95.2 ± 1.7
360 K, 10000 kPa | 92.82 ± 1.7
360 K, 15000 kPa | 90.26 ± 3.1

N [ammonia] + O
molar heat capacity at constant pressure [J/K/mol], [2]
Conditions | x2 = 0 | x2 = 0.1566 | x2 = 0.1597 | x2 = 0.303 | x2 = 0.3048 | x2 = 0.4956 | x2 = 0.7061 | x2 = 0.8489
280 K, 100 kPa | – | – | – | – | – | – | 68.95 ± 1.4 | 70.04 ± 1.4
280 K, 1000 kPa | 76.81 ± 2 | 76.13 ± 1.9 | – | 71.92 ± 1.7 | – | 76.38 ± 1.6 | 69.48 ± 1.6 | 70.93 ± 1.4
280 K, 5000 kPa | 75.62 ± 4.6 | 74.58 ± 4.3 | – | 74.17 ± 4 | – | 76.03 ± 3.9 | 72.68 ± 3.7 | 72.89 ± 3.6
300 K, 100 kPa | – | – | – | – | – | – | – | 73.25 ± 0.54
300 K, 1000 kPa | – | 78.19 ± 2.9 | – | 77.63 ± 2.8 | – | 80.94 ± 2.8 | 75.33 ± 2.7 | 74.86 ± 2.5
300 K, 5000 kPa | 76.81 ± 3.4 | 76.13 ± 3.3 | – | 77.29 ± 3.1 | – | 78.83 ± 3 | 76.58 ± 2.8 | 74.86 ± 2.7
320 K, 1000 kPa | – | – | – | – | – | 79.71 ± 2.1 | 75.51 ± 1.9 | 73.97 ± 2
320 K, 5000 kPa | 77.83 ± 2 | 77.85 ± 1.9 | – | 80.93 ± 1.7 | – | 82.86 ± 1.8 | 79.41 ± 1.6 | 77.18 ± 1.6
360 K, 1000 kPa | – | – | – | – | – | – | 79.77 ± 1.1 | 76.11 ± 0.89
360 K, 5000 kPa | 95.2 ± 1.7 | – | 85.94 ± 1.4 | – | 84.92 ± 1.2 | 83.21 ± 1.2 | 81.72 ± 1.1 | 77.54 ± 1.1
360 K, 10000 kPa | 92.82 ± 1.7 | – | 86.97 ± 1.4 | – | 88.21 ± 1.4 | 85.32 ± 1.1 | 84.55 ± 1.1 | 80.04 ± 1.1
360 K, 15000 kPa | 90.26 ± 3.1 | – | 86.11 ± 2.6 | – | 86.65 ± 2.4 | 85.84 ± 2.3 | 84.73 ± 2.1 | 79.69 ± 2.1
